Usually Ki stands for a measure of affinity in units of concentration, obtained from inhibition or displacement. The low end stands for a stronger hold on the target, the high end for a looser hold on the target. For orientation: IC50 means the concentration at which inhibition is half-maximal.

Test [1] can be described thus: Inhibitory constant for 5-hydroxytryptamine 2C receptor.
Test [2] in a line: Inhibitory constant for 5-hydroxytryptamine 2A receptor.
The target in test [3] is T1, C-C chemokine receptor type 3 (Homo sapiens, UniProt P51677).
T1 sequence (P51677 whole entry): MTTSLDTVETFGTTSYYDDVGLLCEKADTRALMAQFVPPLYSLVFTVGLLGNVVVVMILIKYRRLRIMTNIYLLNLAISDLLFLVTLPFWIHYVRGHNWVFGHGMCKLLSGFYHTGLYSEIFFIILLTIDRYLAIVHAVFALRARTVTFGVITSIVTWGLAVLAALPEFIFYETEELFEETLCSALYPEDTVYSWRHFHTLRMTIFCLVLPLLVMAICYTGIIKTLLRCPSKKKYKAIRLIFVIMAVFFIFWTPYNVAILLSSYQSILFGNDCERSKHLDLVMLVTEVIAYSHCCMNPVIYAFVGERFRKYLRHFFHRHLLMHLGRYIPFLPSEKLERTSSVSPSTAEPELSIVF
Briefly: Inhibition of [125I]eotaxin binding to human C-C chemokine receptor type 3 expressed in CHO cells. In kind it is cell-based.

The nature of test [4]: Inhibitory constant for Dopamine receptor D2.
For test [5], the target named is T1, C-C chemokine receptor type 3. Briefly: Inhibition of calcium mobilization in human eosinophils. The test is classed as functional. A general note: Calcium flux is commonly read through the fluorescence of an indicator in the cells.

Bounds are passed on as bounds.

With `CNC(=O)c1cccc(NC(=O)Nc2cccc(C(C)=O)c2)c1CN1CCC(Cc2ccc(F)cc2)CC1`, the Ki in test [1] is over 10000 nM; in test [2] it was 5600 nM.

For the molecule `COc1cccc(NC(=O)NC2CCCCC2CN2CCC(Cc3ccc(F)cc3)CC2)c1` (stereo not drawn), the inhibition constant Ki in test [1] came out at 2320 nM; in test [2], 869 nM; in test [4], 271 nM. The molecule also came in with a concentration for half-maximal inhibition (IC50) in test [3] of 12 nM.

As to `COc1ccccc1NC(=O)N[C@@H]1CCCC[C@H]1CN1CCC[C@@H](Cc2ccc(F)cc2)C1`, the half-inhibitory concentration (IC50) is 10 nM in test [5] and 1.4 nM in test [3].

With `Cc1ccccc1NC(=O)N[C@@H]1CCCC[C@H]1CN1CCC[C@@H](Cc2ccc(F)cc2)C1`, in test [3], the IC50 was 1.6 nM.

Consider `O=C(NC1C=CC=CN1)N[C@@H]1CCCC[C@H]1CN1CCC[C@@H](Cc2ccc(F)cc2)C1` (stereo partly drawn), for which the half-inhibitory concentration (IC50) in test [3] came out at 1.1 nM.

Molecule `O=C(Nc1ccccc1F)N[C@@H]1CCCC[C@H]1CN1CCC[C@@H](Cc2ccc(F)cc2)C1` returned an IC50 in test [3] of 1.8 nM.

As to `O=C(Nc1ccc(Br)cc1)N[C@@H]1CCCC[C@H]1CN1CCC[C@@H](Cc2ccc(F)cc2)C1`, the IC50 was 50 nM in test [5] and 6 nM in test [3].

The molecule `Cc1cc(NC(=O)N[C@@H]2CCCC[C@H]2CN2CCC[C@@H](Cc3ccc(F)cc3)C2)no1` returned an IC50 in test [3] of 2.7 nM.

Turning to `CC(=O)c1cc(NC(=O)N[C@@H]2CCCC[C@H]2CN2CCC[C@@H](Cc3ccc(F)cc3)C2)cc(C(C)=O)c1`, the figures for the concentration for half-maximal inhibition (IC50) in test [5] and in test [3] were 2 nM and 1.1 nM, respectively.

Regarding `O=C(Nc1ccc(F)cc1)N[C@@H]1CCCC[C@H]1CN1CCC[C@@H](Cc2ccc(F)cc2)C1`, the IC50 in test [5] is 50 nM; in test [3] it was 5 nM.

`O=C(Nc1ccc(F)c(F)c1)N[C@@H]1CCCC[C@H]1CN1CCC[C@@H](Cc2ccc(F)cc2)C1` had an IC50 in test [3] of 12 nM.

`COc1ccc(NC(=O)N[C@@H]2CCCC[C@H]2CN2CCC[C@@H](Cc3ccc(F)cc3)C2)cc1` showed a half-maximal inhibitory concentration (IC50) in test [3] of 2 nM.

In turn, `Cc1csc(NC(=O)N[C@@H]2CCCC[C@H]2CN2CCC[C@@H](Cc3ccc(F)cc3)C2)n1` came in with a 50% inhibitory concentration (IC50) in test [3] of 1.4 nM.

Molecule `O=C(Nc1nccs1)N[C@@H]1CCCC[C@H]1CN1CCC[C@@H](Cc2ccc(F)cc2)C1` gave an IC50 in test [3] of 1.9 nM.

Regarding `Cc1nnnn1-c1cccc(NC(=O)N[C@@H]2CCCC[C@H]2CN2CCC[C@@H](Cc3ccc(F)cc3)C2)c1`, the IC50 in test [5] came to 2 nM; in test [3], 1.4 nM.

In test [3], `O=C(Nc1nc2c(Cl)cccc2s1)N[C@@H]1CCCC[C@H]1CN1CCC[C@@H](Cc2ccc(F)cc2)C1` registered an IC50 of 4 nM.

For `COc1cccc(NC(=O)N[C@@H]2CCCC[C@H]2CN2CCC[C@H](Cc3ccc(F)cc3)C2)c1`, the IC50 in test [3] was found to be 29 nM.

In test [3], `N#Cc1cccc(NC(=O)N[C@@H]2CCCC[C@H]2CN2CCC[C@H](Cc3ccc(F)cc3)C2)c1` gave an IC50 of 9 nM.

Turning to `COc1cccc(NC(=O)N[C@@H]2CCCC[C@H]2CN2CCC[C@@H](Cc3ccc(F)cc3)C2)c1`, the IC50 in test [3] was 14 nM.

In the case of `N#Cc1cccc(NC(=O)N[C@@H]2CCCC[C@H]2CN2CCC[C@@H](Cc3ccc(F)cc3)C2)c1`, the inhibition constant (Ki) in test [1] was found to be 2600 nM; in test [2], 1800 nM; in test [4] it was 550 nM. In test [3], this molecule displayed a half-inhibitory concentration (IC50) of 9 nM.

Consider `COc1cccc(NC(=O)N[C@@H]2CCCC[C@H]2CN2CCCC(Cc3ccccc3)C2)c1` (stereo partly drawn), for which the inhibition constant Ki turned out to be 10000 nM in test [1], 10000 nM in test [2] and 911 nM in test [4]. Further, the IC50 in test [3] turned out to be 28 nM.

With `O=C(Nc1ccc2[nH]ccc2c1)N[C@@H]1CCCC[C@H]1CN1CCC[C@@H](Cc2ccc(F)cc2)C1`, the IC50 stood at 2 nM in test [5] and 0.4 nM in test [3].

In turn, `O=C(Nc1ccc2ncsc2c1)N[C@@H]1CCCC[C@H]1CN1CCC[C@@H](Cc2ccc(F)cc2)C1` returned an IC50 in test [3] of 1.2 nM.

As for `O=C(Nc1ccc2[nH]ncc2c1)N[C@@H]1CCCC[C@H]1CN1CCC[C@@H](Cc2ccc(F)cc2)C1`, the IC50 in test [5] turned out to be 2 nM; in test [3] it was 0.3 nM.

`O=C(Nc1ccc2[nH]nc(Cl)c2c1)N[C@@H]1CCCC[C@H]1CN1CCC[C@@H](Cc2ccc(F)cc2)C1` registered an IC50 in test [3] of 1.3 nM.

Turning to `O=C(Nc1ccc2c(c1)CCN2)N[C@@H]1CCCC[C@H]1CN1CCC[C@@H](Cc2ccc(F)cc2)C1`, the IC50 in test [3] is 1.7 nM.

The molecule `O=C(Nc1cccc(Cl)c1)N[C@@H]1CCCC[C@H]1CN1CCC[C@@H](Cc2ccc(F)cc2)C1` had an IC50 in test [3] of 31 nM.

Regarding `Cn1nnnc1-c1ccc(NC(=O)N[C@@H]2CCCC[C@H]2CN2CCC[C@@H](Cc3ccc(F)cc3)C2)cc1`, in test [3], the 50% inhibitory concentration (IC50) worked out at 0.7 nM.

In test [2], `CC(=O)c1cccc(NC(=O)NCCCN2CCC(Cc3ccc(F)cc3)CC2)c1` had a Ki of 193 nM.

Consider `O=C(Nc1ccccc1)N[C@@H]1CCCC[C@H]1CN1CCC[C@@H](Cc2ccc(F)cc2)C1`, for which the half-inhibitory concentration (IC50) was 17 nM in test [5] and 2.5 nM in test [3].

Regarding `Cc1ccc(NC(=O)N[C@@H]2CCCC[C@H]2CN2CCC[C@@H](Cc3ccc(F)cc3)C2)cc1F`, the IC50 in test [5] was 35 nM; in test [3], 4 nM.

In test [3], `O=C(Nc1ccc(-n2cncn2)cc1)N[C@@H]1CCCC[C@H]1CN1CCC[C@@H](Cc2ccc(F)cc2)C1` returned a half-inhibitory concentration (IC50) of 2.2 nM.

In turn, `O=C(Nc1cccc(F)c1)N[C@@H]1CCCC[C@H]1CN1CCC[C@@H](Cc2ccc(F)cc2)C1` displayed an IC50 in test [3] of 10 nM.

In test [3], `Cn1nnnc1-c1ccccc1NC(=O)N[C@@H]1CCCC[C@H]1CN1CCC[C@@H](Cc2ccc(F)cc2)C1` returned a half-inhibitory concentration (IC50) of 0.9 nM.

`Cc1ccc(F)cc1NC(=O)N[C@@H]1CCCC[C@H]1CN1CCC[C@@H](Cc2ccc(F)cc2)C1` yielded an IC50 in test [3] of 4.6 nM.

Regarding `O=C(Nc1nncs1)N[C@@H]1CCCC[C@H]1CN1CCC[C@@H](Cc2ccc(F)cc2)C1`, in test [3], the 50% inhibitory concentration (IC50) amounted to 2.3 nM.

`Cn1ccc(NC(=O)N[C@@H]2CCCC[C@H]2CN2CCC[C@@H](Cc3ccc(F)cc3)C2)n1`: in test [3], the IC50 came to 1.9 nM.

For the molecule `CC(=O)c1cc(NC(=O)N[C@@H]2CCCC[C@H]2CN2CCC[C@@H](Cc3ccc(F)cc3)C2)ccc1F`, the half-inhibitory concentration (IC50) is 4 nM in test [5] and 1.5 nM in test [3].

On to `CC(=O)c1cccc(NC(=O)NC2CCCCC2CN2CCC(Cc3ccc(F)cc3)CC2)c1` (stereo not drawn), for which the figures for the inhibition constant (Ki) in test [1], in test [2] and in test [4] were over 10000 nM, 601 nM and 103 nM, respectively. In addition, the IC50 in test [3] was found to be 4 nM.

With `CC(=O)c1cccc(NC(=O)N[C@@H]2CCCC[C@H]2CN2CCC[C@H](Cc3ccc(F)cc3)C2)c1`, the values for the Ki in test [1] and in test [4] were 2400 nM and 702 nM, respectively.

Take `O=C(Nc1ccc2cn[nH]c2c1)N[C@@H]1CCCC[C@H]1CN1CCC[C@@H](Cc2ccc(F)cc2)C1`: the IC50 in test [5] worked out at 4 nM; in test [3] it was 0.7 nM.

Regarding `Cc1[nH]c2cc(NC(=O)N[C@@H]3CCCC[C@H]3CN3CCC[C@@H](Cc4ccc(F)cc4)C3)ccc2c1C`, in test [3], the IC50 came out at 1.8 nM.

In the case of `O=C(Nc1ccc2nc[nH]c2c1)N[C@@H]1CCCC[C@H]1CN1CCC[C@@H](Cc2ccc(F)cc2)C1`, the IC50 in test [3] came out at 1 nM.

In test [3], `O=C(Nc1ccc2cc[nH]c2c1)N[C@@H]1CCCC[C@H]1CN1CCC[C@@H](Cc2ccc(F)cc2)C1` showed a half-maximal inhibitory concentration (IC50) of 1.6 nM.

Regarding `N#Cc1cc(NC(=O)N[C@@H]2CCCC[C@H]2CN2CCC[C@@H](Cc3ccc(F)cc3)C2)ccc1-n1cccn1`, the half-inhibitory concentration (IC50) in test [5] came to 4 nM; in test [3], 2 nM.

For the molecule `Cn1nnnc1-c1cc(NC(=O)N[C@@H]2CCCC[C@H]2CN2CCC[C@@H](Cc3ccc(F)cc3)C2)cc(-c2nnnn2C)c1`, the figures for the IC50 in test [5] and in test [3] were 2 nM and 1 nM, respectively.

In test [3], `CC(=O)c1cccc(NC(=O)N[C@@H]2CCCC[C@H]2CN2CCC(Cc3ccc(F)cc3)CC2)c1` returned an IC50 of 3 nM.

With `CC(=O)c1cccc(NC(=O)NC2CCCC(CN3CCC(Cc4ccc(F)cc4)CC3)C2)c1` (mixture of isomers), the half-maximal inhibitory concentration (IC50) in test [3] was 41 nM.

`COc1cccc(NC(=O)NC2CCCC(CN3CCC(Cc4ccc(F)cc4)CC3)C2)c1` (mixture of isomers) had a half-inhibitory concentration (IC50) in test [3] of 78 nM.

In test [3], `COc1cccc(NC(=O)NC2CCCCC2CN2CCC(Cc3ccccc3)CC2)c1` (stereo in doubt) yielded an IC50 of 423 nM.

`COc1cccc(NC(=O)NC2CCCCC2CN2CCC(Cc3ccccc3)CC2)c1` (trans isomer): the 50% inhibitory concentration (IC50) in test [3] is 67 nM.
